# Assay results as given in patent US11633373B2, “Method for reduction of behavioral disorders in pigs” (Alzchem Trostberg GmbH, priority 2020, dated 2023).
# “Also recorded” adds a separate entry of the source.
# Tested on: pigs (fattening animals of the Piétrain×Danbred breed)
# Assay: Tail biting (caudophagia) injury scoring in fattening pigs fed guanidinoacetic acid in the feed
# Assay type: in vivo, pig (Sus scrofa domesticus)
# Conditions: for Number of animals score 3 or 4: regardless of available space; for Number of animals with score 1 (without abnormalities) / Number of animals with score 2 (dry bite marks, not bleeding) / Number of animals with score 3 (bloody bite marks, moderate inflammation) / Number of animals with score 4 ((partial) loss, high-grade inflammation, large bleeding wounds) / Number of animals, total score 3 + 4: 96 animals
# From the text: A total of 1440 pigs (fattening animals of the Piétrain×Danbred breed) were used.
# From the 91st day of life, the experiment started with different dosage of different amounts of guanidinoacetic acid in the feed.
# After 60 days of life, 1152 animals were selected for the continuation of the experiment: Here, conspicuously weak animals and animals with easily recognizable injuries to the tail or other body parts were not used.
# In the subsequent fattening period, the pigs were kept in 72 pens of 16 animals each on concrete slats without bedding. A drawing of the experimental setup is shown with FIGS. 1 to 3. The slat width was 18 mm with a tread width of 80 mm. Feed was provided ad libitum by means of type RM 05 mash feeders from IBO Stalltechnik GmbH. The feed was supplied via floury feed.
# For each experimental parameter, 6 pens of mixed-sex were housed. For an even distribution, the animals were first divided into 4 main groups 1, 2, 3 and 4 of 288 animals each. Then, from each main group, animals were divided into 3 subgroups A, B and C (SG A, SG B, SG C) of 96 animals each, and from each subgroup, animals were separated into 6 pens. Thus, there were 12 experimental parameters with 6 replications each and 16 animals per replication, corresponding to 1152 animals.
# The 72 pens were divided into 6 sections in a stable. All 4 main groups were represented in each section, with a pen size assigned to each main group (see Table 1). The pen sizes of main groups 3 and 4 were realized by removing railings from the standard pen of 12 m^2. To realize the pen size of main group 2, a part of a 24 m^2 pen was reduced by a railing.
# Feeding from 91 days of life was performed in 2 phases, which were identical across all 4 main groups.
# For subgroups B and C, guanidinoacetic acid was added to the feed in amounts of 0.04 wt. % and 0.12 wt. %, respectively, relative to the solid feed.
# A maximum of 2 failures occurred per experimental regime during the fattening phase. Here, the score was evaluated at the time of the failure.
# Essential for an evaluation of the stand is the ratio of uninjured or only slightly injured animals to moderately and severely injured animals. Since dry, non-bloody bite marks result from a playful non-aggressive act, animals with score 2 were added to the non-injured animals. Harmful to animal welfare is considered to occur at score 3 and above, i.e., bloody bite marks, resulting from aggressive acts that are no longer playful. Therefore, for an evaluation, the numbers for scores 3 and 4 were added and the percentage of these animals relative to the total number of the respective experimental group was evaluated.
# [1] = experiment B1: 0.04 wt. % GAA in feed, 0.75 m^2/animal
# [2] = experiment B2: 0.04 wt. % GAA in feed, 0.9 m^2/animal
# [3] = experiment B3: 0.04 wt. % GAA in feed, 1.5 m^2/animal
# [4] = experiment B4: 0.04 wt. % GAA in feed, 2.25 m^2/animal
# [5] = experiment C1: 0.12 wt. % GAA in feed, 0.75 m^2/animal
# [6] = experiment C2: 0.12 wt. % GAA in feed, 0.9 m^2/animal
# [7] = experiment C3: 0.12 wt. % GAA in feed, 1.5 m^2/animal
# [8] = experiment C4: 0.12 wt. % GAA in feed, 2.25 m^2/animal
# [9] = guanidinoacetic acid given orally to pigs
structure (smiles),measurement,setting,value
"N=C(N)NCC(=O)O [guanidinoacetic acid, Guanidinoacetic acid]",Number of animals score 3 or 4,"0.04 wt. % GAA in feed, experiments B1 + B2 + B3 + B4 pooled, 384 animals",36
same,Injured animals (score 3 or 4),"0.04 wt. % GAA in feed, experiments B1 + B2 + B3 + B4 pooled, 384 animals, without supplementation 12.2%",9.4%
same,Reduction of injured animals versus no supplementation,"0.12 wt. % GAA in feed, 0.9 m^2/animal",almost halved the number of injured animals; also recorded: reduction of injured animals to almost half
same,Reduction of injured animals versus no supplementation,"0.12 wt. % GAA in feed, 1.5 m^2/animal",more than halved; also recorded: reduction of injured animals to more than half
same,Number of animals score 3 or 4,"0.12 wt. % GAA in feed, experiments C1 + C2 + C3 + C4 pooled, 384 animals",32
same,Injured animals (score 3 or 4),"0.12 wt. % GAA in feed, experiments C1 + C2 + C3 + C4 pooled, 384 animals, without supplementation 12.2%",8.3%
same,Number of animals with score 1 (without abnormalities),[1],41
same,"Number of animals with score 2 (dry bite marks, not bleeding)",[1],41
same,"Number of animals with score 3 (bloody bite marks, moderate inflammation)",[1],10
same,"Number of animals with score 4 ((partial) loss, high-grade inflammation, large bleeding wounds)",[1],4
same,"Number of animals, total score 3 + 4",[1],14
same,Injured animals (score 3 or 4),"experiment B1: 0.04 wt. % GAA in feed, 0.75 m^2/animal, without supplementation 15.6%",14.6%
same,Number of animals with score 1 (without abnormalities),[2],50
same,"Number of animals with score 2 (dry bite marks, not bleeding)",[2],36
same,"Number of animals with score 3 (bloody bite marks, moderate inflammation)",[2],8
same,"Number of animals with score 4 ((partial) loss, high-grade inflammation, large bleeding wounds)",[2],2
same,"Number of animals, total score 3 + 4",[2],10
same,Injured animals (score 3 or 4),"experiment B2: 0.04 wt. % GAA in feed, 0.9 m^2/animal, without supplementation 14.6%",10.4%
same,Number of animals with score 1 (without abnormalities),[3],54
same,"Number of animals with score 2 (dry bite marks, not bleeding)",[3],36
same,"Number of animals with score 3 (bloody bite marks, moderate inflammation)",[3],5
same,"Number of animals with score 4 ((partial) loss, high-grade inflammation, large bleeding wounds)",[3],1
same,"Number of animals, total score 3 + 4",[3],6
same,Injured animals (score 3 or 4),"experiment B3: 0.04 wt. % GAA in feed, 1.5 m^2/animal, without supplementation 11.5%",6.3%
same,Number of animals with score 1 (without abnormalities),[4],55
same,"Number of animals with score 2 (dry bite marks, not bleeding)",[4],35
same,"Number of animals with score 3 (bloody bite marks, moderate inflammation)",[4],6
same,"Number of animals with score 4 ((partial) loss, high-grade inflammation, large bleeding wounds)",[4],0
same,"Number of animals, total score 3 + 4",[4],6
same,Injured animals (score 3 or 4),"experiment B4: 0.04 wt. % GAA in feed, 2.25 m^2/animal, without supplementation 7.3%",6.3%
same,Number of animals with score 1 (without abnormalities),[5],40
same,"Number of animals with score 2 (dry bite marks, not bleeding)",[5],43
same,"Number of animals with score 3 (bloody bite marks, moderate inflammation)",[5],10
same,"Number of animals with score 4 ((partial) loss, high-grade inflammation, large bleeding wounds)",[5],3
same,"Number of animals, total score 3 + 4",[5],13
same,Injured animals (score 3 or 4),"experiment C1: 0.12 wt. % GAA in feed, 0.75 m^2/animal, without supplementation 15.6%",13.5%
same,Number of animals with score 1 (without abnormalities),[6],52
same,"Number of animals with score 2 (dry bite marks, not bleeding)",[6],36
same,"Number of animals with score 3 (bloody bite marks, moderate inflammation)",[6],6
same,"Number of animals with score 4 ((partial) loss, high-grade inflammation, large bleeding wounds)",[6],2
same,"Number of animals, total score 3 + 4",[6],8
same,Injured animals (score 3 or 4),"experiment C2: 0.12 wt. % GAA in feed, 0.9 m^2/animal, without supplementation 14.6%",8.3%
same,Number of animals with score 1 (without abnormalities),[7],56
same,"Number of animals with score 2 (dry bite marks, not bleeding)",[7],35
same,"Number of animals with score 3 (bloody bite marks, moderate inflammation)",[7],4
same,"Number of animals with score 4 ((partial) loss, high-grade inflammation, large bleeding wounds)",[7],1
same,"Number of animals, total score 3 + 4",[7],5
same,Injured animals (score 3 or 4),"experiment C3: 0.12 wt. % GAA in feed, 1.5 m^2/animal, without supplementation 11.5%",5.2%
same,Number of animals with score 1 (without abnormalities),[8],55
same,"Number of animals with score 2 (dry bite marks, not bleeding)",[8],35
same,"Number of animals with score 3 (bloody bite marks, moderate inflammation)",[8],5
same,"Number of animals with score 4 ((partial) loss, high-grade inflammation, large bleeding wounds)",[8],1
same,"Number of animals, total score 3 + 4",[8],6
same,Injured animals (score 3 or 4),"experiment C4: 0.12 wt. % GAA in feed, 2.25 m^2/animal, without supplementation 7.3%",6.3%
same,Behavioral abnormalities in the form of tail biting (caudophagia) compared to the untreated control group,[9],less behavioral abnormalities in the form of tail biting
same,Biting attacks on conspecifics compared to an untreated control group,[9],fewer biting attacks on conspecifics
